From US8003595B2, “Amino acid sequences facilitating penetration of a substance of interest into cells and/or cell nuclei” (Cellectis, priority 2000, dated 2011) come the findings set out here.

Read-outs that look alike come from different tables or passages of the source. Marks after values point to notes of the source that are not given here. Where no end group is shown, it is not given here.

For assay [1], the system named is HT29 cells. Put plainly: cells. The class given is cell-based. The settings on record: Homo sapiens, HT-29, Table 26, read-out: % inhibition of the growth of HT29 cells. The source says:
N-phthalimidoglutarimide (thalidomide) is a molecule that has a great variety of properties, such as a teratogenic effect, reduction of the production of TNF-α by the monocytes and suppression of angiogenesis. It has been shown that the teratogenic activity depends on the glutarimide residue, while the antiangiogenic effect depends on the phthaloyl group. We therefore prepared peptide SEQ ID NO: 46 derived from peptide SEQ ID NO: 26 (HBP3)2 and added glycyl phthaloyl in N-terminal. The technique used to test the activity of phthaloyl-HBP3 is the same as the one previously described for aspirin. The results of the inhibition of the growth (%) of HT29 cells shown in Table 27 are calculated as a percentage of the mean optical density in the wells of cells containing dilutions of the samples being tested and the mean optical density of the wells of cells that received only medium.

For assay [2], the system named is CHO cells. Put plainly: In vitro transfection with luciferase plasmid using peptides. The settings on record: for luciferase expression RLU: 3 μg of plasmid PCMV-LUC and 3.3 nmoles of peptide. The class given is cell-based, Chinese hamster. Here is the method: The plasmid used is PCMV-LUC (6.4 kb) carrying the luciferase gene under the control of the promoter of the human cytomegalovirus.
The plasmid-peptide complexes are prepared by adding 3 μg of plasmid to 50 μl of NaCl, 0.15 M and 3.3 nmoles of SEQ ID NO: 22 and 23 for 15 minutes. The complexes are prepared in triplicate.
CHO cells are cultivated in the complete medium MEM Alpha containing 6% fetal calf serum and sown with 5×10^4 cells per well on a 24-well plate the evening before the experiment. The wells are then emptied of the medium, and the plasmid-peptide complex is added to them (3 μg of plasmid and 3.3 nmoles of peptide in 0.5 ml of complete medium for 5 hours at 37° C.). The medium is then replaced with the complete medium, and the culture is continued for 18-20 hours. The cells are then washed three times with PBS, then lysed with 100 μl of lysis buffer (Promega) containing 1% Triton X-100 and 2 mM DTT.
Then a 15 μl sample of the lysate is taken to measure the luciferase with the Promega luciferin kit and 15 other μl to calculate the quantity of proteins in the lysate using the Bradford Test. The relative luciferase units (RLU) are reported in mg of proteins.

For assay [3], the system named is H1299 cells. Briefly: Internalization of biotinylated peptide/S-PO complexes. The assay is classed as cell-based, human. The following applies: peptide: S-PO complexes of 4:1, peptide concentration of 1 μg. The protocol:
A biotinylated/S-PO peptide or biotinylated/A-PO complex (A-PO for avidin-peroxidase) is prepared extemporaneously in two ways:
1) either in a peptide: S-PO or A-PO molar ratio of 4:1 (for example, 1.4 μg of peptide with a molecular weight of 3500 to 10 μg of S-PO; the weight of S-PO used varies depending on the peptides since their molecular weights are different).
2) or in a peptide: S-PO or A-PO molar ratio of 25:1 (for example 1.7 μg of peptide with a molecular weight of 3500 to 1 μg of S-PO).
The complexes are prepared by incubating the biotinylated peptide with S-PO or A-PO in PBS in a volume of 5 to 10 μl for 15 minutes at laboratory temperature. They are then diluted in 1 ml of complete culture medium, filtered on a 0.2 micron membrane and incubated with the cells for 4 hours. The cells are then washed three times with PBS.
To study the penetration of the complexes under a microscope, the cells are fixed as before for 15 minutes in ethanol at −20° C., they are washed with PBS, and the activity of the internalized peroxidase is shown by diaminobenzidine in the presence of H2O2. To measure the quantity of peptide/S-PO or A-PO complexes internalized, the cells are trypsinized, transferred into microtubes and counted. They are washed twice by centrifugation, then the residue is suspended in 200 μl of lysis buffer (Tris buffer, 0.1 M, pH8, 0.5% Nonidet). After 15 minutes, the peroxidase contained in the lysis buffer is dosed onto 96-well plates with ortho-dianisidine and H2O2 by comparison with a standard curve for S-PO. The reading is taken at 450 nm. The quantity contained in the different samples is expressed in picograms (pg) per 10^4 cells.
Table 7 below reports the results of evaluating the influence of SEQ ID NO: 1 on the penetration of peptides coupled to SEQ ID NO: 1 into H1299 cells, where
Concentration a: 25 peptides to one molecule of S-PO (1 μg),
Concentration b: 4 peptides to one molecule of S-PO (10 μg).

Assay [4] relates to HeLa. Briefly: Internalization of covalent peptide-peroxidase conjugates. The following applies: Table 9, 0.2 μg/ml conjugate, 2 hours. The class given is cell-based, human. The protocol: (§1) To evaluate more directly the penetration of the peptides, avoiding the avidin-peroxidase bias, some of the peptides in sequences SEQ ID NO: 25 to 48 were conjugated covalently with cysteine in the C-terminal position of the peptide to peroxidase. The peptides were coupled with peroxidase in the following way:
(§2) One mg of peroxidase activated with maleimide (Sigma) in 100 μl of sodium phosphate buffer, NaCl 0.15 M, EDTA 5 mM, had 1 mg of peptide added to it. After 2 hours at laboratory temperature, β-mercaptoethanol is added to a final concentration of 1.5 mM for 15 minutes. The uncoupled peptide is eliminated by centrifugation on ultrafiltration membranes (cut-off threshold=30,000 Daltons, Sartorius), followed by three washings in sodium phosphate buffer 0.1 M, pH 7.4 containing 0.15 M NaCl.
(§3) It appears that the higher the concentration of peptide-peroxidase conjugate in the culture medium, the more the quantity internalized increases. To compare the penetration of the conjugates by cell type, the cells from different lines were incubated with 0.2 μg/ml of peptide-peroxidase conjugate for 2 hours, and the quantity of peroxidase dosed in the lysates. Table 9 and Table 9B below give the results expressed in pg/10^3 cells. The quantity of each peptide internalized in the different lines generally varies only from single to double.

In assay [5] the test system is 3T3. Described as above. The assay is classed as cell-based, mouse. The settings on record: Table 9, 0.2 μg/ml conjugate, 2 hours. Here is the method: as §1, §2, §3
Assay [6] is described as follows: ELISA fixation of biotinylated peptides on sensitized plates. The following applies: read-out: avidity (Kd), quantity of peptides necessary to obtain 50% fixation, Chondroitin A; Table 5. The assay is classed as binding.
Test in assay [7]: as above
The assay is classed as binding. The following applies: read-out: avidity (Kd), quantity of peptides necessary to obtain 50% fixation, Chondroitin C; Table 5.

Test in assay [8]: as above
The settings on record: read-out: avidity (Kd), quantity of peptides necessary to obtain 50% fixation, Heparin; Table 5. The assay is classed as binding. The protocol:
The capacity of peptides SEQ ID NO: 1 to 21 to attach themselves to DNA and heparin is evaluated on ELISA plates sensitized with DNA or heparin. Dilutions of biotinylated peptides are deposited on the plates and their fixation is shown using streptavidin conjugated with peroxidase. […] The avidity of each of the peptides for DNA or heparin is evaluated by the quantity (×10^−6 M) of peptides necessary to obtain 50% fixation.

Test in assay [9]: as above
The assay is classed as binding. The following applies: read-out: avidity (Kd), quantity of peptides necessary to obtain 50% fixation, Chondroitin B; Table 5.

Assay [10] has as its system gram-positive and gram-negative bacterial strains. Put plainly: Antibacterial activity of cationic peptides, summary over strains. The class given is cell-based. The following applies: summary of Table 29. Here is the method:
(§4) The gram-positive bacterial strains are: Enterococcus faecalis (ATCC 29212), and Staphylococcus aureus (ATCC 25923) and the gram-negative strains are: Escherichia coli (ATCC 25922), Pseudomonas aeruginosa (ATCC 27853) and Salmonella typhimurim (clinical isolate), Salmonella typhiTy2 (WHO). The bacteria are cultured with shaking all night at 37° C., then recultured at a dilution of 1:50 in some fresh Luria-Bertani (LB) medium for 2 hours. The bacterial concentration is adjusted to […], and 50 μl is distributed in 96-well plates with an equal volume of peptides diluted half and half (256-0.5 μg/ml) in LB medium. […] To determine the minimum bactericide concentration, 10 μl from each well is spread on gelose plates in LB medium.
However, when peptide HPB13 (SEQ ID NO: 38) is coupled with peptide SEQ ID NO: 24, it enhances its activity by a factor of 50 to 100 (peptide SEQ ID NO: 45). […] None these peptides are active on gram-positive bacteria.

The subject of assay [11] is H1299 cells. Briefly: Internalization of covalent peptide-peroxidase conjugates. The class given is cell-based, human. The following applies: Table 9; H1299; 0.2 μg/ml conjugate, 2 hours. An outline of the steps:
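Peptides coupled via C-terminal cysteine to maleimide-activated peroxidase; uncoupled peptide removed by ultrafiltration. H1299 cells incubated 2 h with increasing conjugate concentrations, washed, lysed; internalized peptide quantified from lysate peroxidase against a conjugate standard curve, as pg/10^3 cells.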

Assay [12] relates to Escherichia coli (ATCC 25922). Briefly: microbe, parasite or virus in culture. The class given is cell-based. The settings on record: ATCC 25922. The protocol:
as §4
(§5) The results are expressed as the peptide concentration in MBC (μM).

The test system of assay [13] is Staphylococcus aureus (ATCC 25923). Briefly: microbe, parasite or virus in culture. The assay is classed as cell-based. The following applies: ATCC 25923. Here is the method:
as §4, §5

The subject of assay [14] is Pseudomonas aeruginosa (ATCC 27853). Put plainly: microbe, parasite or virus in culture. The class given is cell-based. The settings on record: ATCC 27853. Here is the method:
as §4, §5

Assay [15] relates to Enterococcus faecalis (ATCC 29212). Put plainly: microbe, parasite or virus in culture. The assay is classed as cell-based. The following applies: ATCC 29212. The protocol:
as §4, §5

Assay [16] relates to Salmonella typhiTy2 (WHO). Put plainly: microbe, parasite or virus in culture. The class given is cell-based, S. typhi-Ty2. The following applies: S. typhi-Ty2. Here is the method: as §4, §5
Assay [17] relates to Salmonella typhimurim (clinical isolate). Briefly: Antibacterial activity of cationic peptides (MBC). The assay is classed as cell-based. The settings on record: S. typhimurium. Here is the method: as §4, §5
Assay [18] relates to cells. Briefly: Penetration of biotinylated peptides inside cells (microscopy, S-PO coloration). The class given is cell-based. The settings on record: biotinylated peptides 50 to 6 μg/ml, 1-18 hours, revealed with S-PO. Here is the method: The cells are cultivated in the presence of the different peptides carrying, on the N-terminal side, biotin in decreasing concentrations (50 to 6 μg/ml) in the culture medium for variable times (1-18 hours).
At the end of the culture, the cells are washed three times with PBS (0.15 M NaCl buffered with 0.01 M potassium phosphate buffer pH 7.4) then fixed 15 minutes in ethanol at −20° C. The penetration of the peptide is evaluated after incubation for 30 minutes with streptavidin conjugated with peroxidase (abbreviated S-PO for streptavidin-peroxidase). Then, the S-PO is eliminated, and the cells are washed. […] With the other peptides, positive colorations, but of variable intensity, were noted.

As for `CC(=O)Oc1ccccc1C(=O)O` [Natural aspirin, aspirin, reference compound], the inhibition at 100 µg/mL in [1] (100 μg/ml) turned out to be 0%. Besides, the inhibition at 200 µg/mL in [1] (200 μg/ml) is 3%. For the same compound, in assay [1] (500 μg/ml), the inhibition at 500 µg/mL was determined as 6%. Besides, in assay [1] (1000 μg/ml), the inhibition at 1000 µg/mL was determined as 48%.

Turning to “SEQ ID NO: 23: Peptide containing 12 lysines (K) and SEQ ID NO: 5 (KKKKKKKKKKKKVKRGLKLRQKYNKRAMDY; Mus musculis x Rattus norvegicus)”, the “luciferase expression RLU” value in assay [2] is 11.5 10^6/mg of proteins. Also, the “increase of luciferase expression compared with SEQ ID NO: 22” value in [2] (CHO cells) is 6 times.

Consider VKRGLKLVKRGLKLVKRGLKL [SEQ ID NO: 3], for which, in [3], the S-PO internalized was found to be 642 pg/10^4 cells. The “Internalization of Peptide-peroxidase” value is recorded as 11.2 pg/10^3 cells in [4], 24.6 pg/10^3 cells in assay [5] and 17.7 pg/10^3 cells in assay [11]. The Kd worked out at 37 nM in assay [6], 35 nM in assay [7], 41 nM in [8] and 41 nM in assay [9]. Besides, the “bactericide / anti-microbial activity” value in [10] is on record as “has bactericide activity”. For the same compound, the MBC in assay [12] (read-out: MBC) is 13.25 µM; in assay [13], greater than 106 µM; in [14], 26.5 µM; in [15], greater than 106 µM; in assay [16], 1.65 µM.

Take “SEQ ID NO: 22: Peptide containing 12 lysines (K) and SEQ ID NO: 6 (KKKKKKKKKKKKTYYSDTVKGRFTRQKYNKRA; Mus musculis x Rattus norvegicus)”: in assay [2], the “luciferase expression RLU” value is listed as 1.9 10^6/mg of proteins.

Compound VKRGLKLVKRGLKL [SEQ ID NO: 2] came in with a S-PO internalized in assay [3] of 84 pg/10^4 cells. Further, the MBC in assay [17] is recorded as greater than 160 µM; in assay [12], >160* μM; in assay [13], greater than 160 µM; in assay [14], greater than 160 µM; in [15] it was greater than 160 µM. Besides, the intracellular cytochemical coloration result in assay [18] is “Faint coloration”. Further, the “bactericide / anti-microbial activity” value in assay [10] is “not active”.
